# Measurements from publication PMC12091851, “Replacing a Cereblon Ligand by a DDB1 and CUL4 Associated Factor 11 (DCAF11) Recruiter Converts a Selective Histone Deacetylase 6 PROTAC into a Pan‐Degrader” (Chemmedchem, 2025).
# Tests used:
# HDAC2 = HDAC2 (Homo sapiens, UniProt Q92769); experiment: HDAC enzyme inhibition assay; assay type: biochemical; parameters: purchased BPS Bioscience 50052
# Procedure: Bio-Rad) to Immobilon-FL PVDF membranes (Catalog# IPFL00005, Mill ipore Merck, Burlington, MA, USA) at 1.0 A for 30 min and treated with 5% milk-powder solution for 1 h at room temperature […]
# Signaling Technology) antibody solutions in 1:1000 –1:8000 dilutions at 4 °C overnight. […]
# Significance testing was performed with a one -way analysis of variance (ANOVA). Dunnett’s post -hoc test was employed to obtain significance levels of each mean compared to a reference mean value.
# 2.7. HDAC Enzyme Inhibition Assay […]
# [4] For test compounds and controls, serial dilutions of the respective DMSO stock solution in DMSO were prepared, and 1.0 μL /well of this serial dilution were transferred […]
# into OptiPlate-96 black microplates (PerkinElmer, Waltham, […], USA). A volume of 4 µL/well assay […]
# BSA) was added. In the case of HDAC1, 2, and 6, a volume of 35 μL/well of the fluorogenic substrate […]
# The total assay volume of 50 μL (max. 2 % DMSO) was incubated at 37 °C for 90 min. Subsequently, 50 μL /well of trypsin (0.4 mg/mL) in trypsin buffer (50 mM Tris−HCl, pH 8.0, 100 mM NaCl) was added, followed by additional 30 min of incubation at […]
# OPTIMA microplate reader (BMG labtech, Ortenburg, Germany). The half maximal inhibitory concentration (IC50) was determined by plotting dose response curves and nonlinear regression with GraphPad Prism (GraphPad Software).
# 2.8. MTT Cell Viability Assay […]
# [1] = Aqueous stability assay in DPBS buffer (HPLC); assay type: physicochemical; details: DPBS pH 7.4, 10% DMSO, room temperature, 72 hours
# Procedure: and A6. Compounds were diluted in DPBS buffer (pH = 7.4; final DMSO concentration: 10%) and the remaining compound content was analyzed by HPLC. The peak area at 0 h was used for normalization.
# Mean ± standard deviation of n = 2 replicates.
# Figure S4. Analysis of time dependent degradation by 1j of HDAC1 (A) and HDAC6 (B) by Simple Western™ immunoassay analysis of MM.1S cell lysates. MM.1S cells were treated with 1j (10 µM) or vehicle (DMSO) for the indicated time period. Quantification of protein levels presented as mean ± standard deviation of n = 3 biological replicates. Si gnificance compared to vehicle: * = p≤0.05 , […]
# 2.5. Aqueous Stability Assay
# For stability testing in aqueous solution, a 10-fold concentrated DMSO solution of the respective compounds was diluted in DPBS to generate a 10 µM concentration (final DMSO content of 10%).
# Samples of the aqueous solutions were taken after 0, 24, 48, and 72 h at room temperature and the amounts of the parental compound and potential fragments were monitored by HPLC gradient A (see 3.1 General Information). The peak area of the 0 h sample was used for normalization. All compounds were tested in duplicates and GraphPad Prim was used for evaluation and data visualization.
# The cell lysis was performed as descripted in 3.2. Simple Western Immunoassay. […]
# Afterwards, proteins were transferred with the Trans -Blot Turbo Transfer System (Catalog# 1704150, Bio-Rad) to Immobilon-FL PVDF membranes (Catalog# IPFL00005, Mill ipore Merck, Burlington, MA, USA) at 1.0 A for 30 min and treated with 5% milk-powder solution for 1 h at room temperature under slight agitation. […] The ChemiDoc XRS+ System (Catalog# 1708265 , Bio-Rad) was used for detection and Image Lab Software 6.1 (Bio-Rad) for quantification. […]
# In vitro inhibitory activities against HDAC1, 2 , and 6 were measured using a previously published protocol.[3] In vitro inhibitory activities against HDAC4 were measured using a previously published protocol with slight modifications. […]
# Sequence of HDAC2 (Q92769 whole entry): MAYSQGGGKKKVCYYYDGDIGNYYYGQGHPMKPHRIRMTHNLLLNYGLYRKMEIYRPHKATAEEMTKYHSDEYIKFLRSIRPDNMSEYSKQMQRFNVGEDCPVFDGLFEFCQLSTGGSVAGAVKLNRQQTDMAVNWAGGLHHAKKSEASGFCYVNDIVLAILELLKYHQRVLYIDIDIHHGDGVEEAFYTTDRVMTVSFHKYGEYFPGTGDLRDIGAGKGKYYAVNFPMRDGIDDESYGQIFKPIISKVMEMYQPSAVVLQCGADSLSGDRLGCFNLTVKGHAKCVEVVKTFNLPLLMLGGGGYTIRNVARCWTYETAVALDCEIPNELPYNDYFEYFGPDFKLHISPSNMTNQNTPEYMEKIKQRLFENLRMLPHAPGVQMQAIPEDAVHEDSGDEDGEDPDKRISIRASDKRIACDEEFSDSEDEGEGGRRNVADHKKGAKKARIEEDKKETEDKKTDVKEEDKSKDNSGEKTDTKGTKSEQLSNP
smiles,measurement,setting,value
O=C(CCCCCCNC(=O)c1ccc(NC(=O)CCCCCCCCCCCN(C(=O)CCl)C(C(=O)NCc2ccccc2)c2ccc(Cl)c(Cl)c2)cc1)NO (stereo not shown) [Compound 1j],IC50,HDAC2,2150 ± 110 nM
same,decomposition / reduction in content in DPBS buffer,[1],more than 90%
O=C(CCCCCCNC(=O)c1ccc(N(C(=O)CCl)C(C(=O)NCc2ccccc2)c2ccc(Cl)c(Cl)c2)cc1)NO (stereo not shown) [Compound 2],IC50,HDAC2,298 ± 11 nM
same,decomposition / reduction in content in DPBS buffer,[1],31%
